# Results from patent US11214803B2, “Modulators of YAP1 expression” (Ionis Pharmaceuticals, Inc., priority 2019, dated 2022).
# “And” between values parts separate entries of the source, which are not always exact repeats. Equal entries are not always repeated. Marks after values point to notes of the source that are not given here. Strand notation (5' to 3'): a small letter for the sugar, then the base; units joined by * are phosphorothioate-linked, units joined directly phosphodiester-linked; [ ] holds rarer units or linkages, { } end groups; capitals alone tell only the bases. k = constrained ethyl (cEt); [5mC] = 5-methylcytosine; d = 2'-deoxy (DNA)
# How the values were obtained:
# [1] = tested on: Yap1 mRNA; assay: Dose-dependent inhibition of human Yap1 in A-431 cells (Example 7, 10,000 cells per well, RTS36584); type: cell-based; conditions: free uptake
# Outline: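 A-431 cells at 10,000 per well received modified oligonucleotides by free uptake at several doses. After about 48 hours, Yap1 mRNA was quantified with primer-probe set RTS36584, normalized to RIBOGREEN total RNA and expressed as % untreated control. IC50 came from linear regression on a log/linear plot.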
# [2] = rat, in vivo, sc, 50 mg/kg
# Procedure: Male Sprague-Dawley rats were maintained on a 12-hour light/dark cycle and fed ad libitum with Purina normal rat chow. Groups of 4 Sprague-Dawley rats each were weekly injected subcutaneously with 50 mg/kg of Ionis oligonucleotide for 6 weeks (total 7 doses). Forty-eight hours after the last dose, the rats were euthanized; and organs, urine and plasma were harvested for further analysis.
# To evaluate the effect of Ionis oligonucleotides on kidney function, urinary levels of total protein and creatinine were measured using an automated clinical chemistry analyzer (Hitachi Olympus AU400c, Melville, N.Y.).
# [3] = tested on: Yap1 mRNA; assay: Dose-dependent inhibition of human Yap1 in A-431 cells (Example 8, 10,000 cells per well, RTS4814); type: cell-based; conditions: for Yap1 mRNA, % UTC: A-431 cells, 10,000 cells per well; for IC50 / % UTC (Yap1 mRNA): A-431 cells
# Outline: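 A-431 cells (10,000/well) dosed with modified oligonucleotides by free uptake; Yap1 mRNA measured ~48 h later with primer-probe set RTS4814, normalized to total RNA (RIBOGREEN). Values are % of untreated control; IC50 from linear regression on log/linear plot.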
# [4] = Tolerability in Sprague-Dawley rats, body and organ weights (Example 20); type: in vivo; conditions: male Sprague-Dawley rats, 50 mg/kg s.c. weekly for 6 weeks (7 doses); for Kidney weight / Liver weight / Spleen weight: end of study; for body weight: terminal, prior to necropsy
# Procedure: (§1) Terminal body weight was measured prior to necropsy. Ionis oligonucleotides that caused any changes in organ weights outside the expected range for modified oligonucleotides were excluded from further studies.
# [5] = Tolerability in Sprague-Dawley rats, body and organ weights (Example 21); type: in vivo; conditions: male Sprague-Dawley rats, 50 mg/kg s.c. weekly for 6 weeks (7 doses); for Kidney weight / Liver weight / Spleen weight: end of study; for body weight: terminal, prior to necropsy
# Procedure: as §1
# [6] = Tolerability in Sprague-Dawley rats, plasma chemistry markers (Example 21); type: in vivo; conditions: male Sprague-Dawley rats, 50 mg/kg s.c. weekly for 6 weeks (7 doses), 48 hours after last dose
# Procedure: Sprague-Dawley rats are a multipurpose model used for safety and efficacy evaluations. The rats were treated with Ionis modified oligonucleotides from the studies described in the Examples above and evaluated for changes in the levels of various plasma chemistry markers.
# [7] = tested on: SNU449 xenograft tumor; assay: Tumor volume in SNU449 xenograft tumor model (first Example 30); type: in vivo, human; conditions: 50 mg/kg
# Procedure: Modified oligonucleotides described in the studies above were tested in a hepatocellular carcinoma SNU449 xenograft tumor model. A control oligonucleotide 792169 was also tested.
# Five million SNU449 cells in 30% matrigel were implanted subcutaneously into the fatpads of female NOD.Cg-Prkdcscid II2rgtmlWjl/SzJ mice (from Jackson Laboratory) at 4-6 weeks of age. 43 days post implantation (when tumors had reached approximately 100 mm^3 in size), groups of eight mice each were administered with 50 mg/kg modified oligonucleotide daily for 10 days (loading dose), following which they were administered with 50 mg/kg modified oligonucleotide four times a week for one week, following which they were dosed with 50 mg/kg modified oligonucleotide thrice weekly until the end of the study. Animals were sacrificed and tumors were collected on day 119 post implantation. Yap1 mRNA knockdown in tumors was measured by RT-qPCR as previously described using the Human Yap1 primer-probe set RTS4814. Yap1 mRNA levels were normalized to actin-beta content, as measured by primer probe set RTS5002. Results are presented in the tables below as percent control of the amount of Yap1 mRNA relative to PBS treated animals (% control).
# Tumor volumes were also measured at the indicated days in the table below
# [8] = tested on: ERK1/2; assay: Measurement of ERK activation (pERK/ERK) in SNU449 xenograft model with sorafenib (second Example 30); type: in vivo, human; conditions: SNU449 xenograft tumors, pERK/ERK relative to PBS control, oligonucleotide 50 mg/kg, sorafenib 30 mg/kg orally
# Procedure: Five million SNU449 cells in 30% matrigel were implanted subcutaneously into the fatpads of female NOD.Cg-Prkdcscid II2rgtmlWjl/SzJ mice (from Jackson Laboratory) at 4-6 weeks of age. 43 days post implantation (when tumors had reached approximately 100 mm^3 in size), groups of eight mice each were administered with 50 mg/kg modified oligonucleotide daily for 10 days (loading dose), following which they were administered with 50 mg/kg modified oligonucleotide four times a week for one week, following which they were dosed with 50 mg/kg modified oligonucleotide thrice weekly until the end of the study.
# Protein analysis was carried out using standard procedures. […] ERK protein levels were compared to internal control GAPDH. […] The secondary antibody used was donkey anti-rabbit NA934, GE Healthcare. pERK/ERK levels were calculated relative to PBS control to determine % activation of ERK1/2.
# [9] = day 101 post tumor implantation
# [10] = day 105 post tumor implantation
# [11] = day 108 post tumor implantation
# [12] = day 119 post tumor implantation
substance,measurement,setting,value
715487 (kA*kT*kT*dA*d[5mC]*dT*dT*d[5mC]*dA*dT*dA*dG*d[5mC]*kT*kT*kA) [compound 715487],"Yap1 mRNA, % UTC","[1]; 15.6 nM, A-431 cells, 10,000 cells per well, approximately 48 hours",77 % UTC
same,"Yap1 mRNA, % UTC","[1]; 62.5 nM, A-431 cells, 10,000 cells per well, approximately 48 hours",44 % UTC
same,"Yap1 mRNA, % UTC","[1]; 4000.00 nM, A-431 cells, 10,000 cells per well, approximately 48 hours",4 % UTC
same,IC50,"[1]; A-431 cells, approximately 48 hours, linear regression on log/linear plot",100 nM
"1076453 (GTAATATTGCAATCTG; 3-10-3 cEt gapmer, further chemistry not given here) [compound 1076453]",URINE P/C ratio (total protein to creatinine ratio),[2],5
same,"Yap1 mRNA, % UTC","[3]; 31.3 nM, free uptake, approximately 48 hours, RTS4814",11 % UTC
same,"Yap1 mRNA, % UTC","[3]; 125.0 nM, free uptake, approximately 48 hours, RTS4814",2 % UTC
same,"Yap1 mRNA, % UTC","[3]; 500.0 nM, free uptake, approximately 48 hours, RTS4814",1 % UTC
same,"Yap1 mRNA, % UTC","[3]; 2000.00 nM, free uptake, approximately 48 hours, RTS4814",2 % UTC
same,IC50,"[3]; free uptake, approximately 48 hours, RTS4814, linear regression on log/linear plot",< 20 nM
same,Kidney weight,[4],3.2 g
same,Liver weight,[4],16 g
same,Spleen weight,[4],2.1 g
same,body weight,[4],371 g
"958499 (ATTAGAGTATGTGGCA; 3-10-3 cEt gapmer, further chemistry not given here) [compound 958499]",URINE P/C ratio (total protein to creatinine ratio),[2],5
same,"Yap1 mRNA, % UTC","[1]; Table 61, 15.6 nM, A-431 cells 10,000 cells per well, 48 hours",54 % UTC
same,"Yap1 mRNA, % UTC","[1]; Table 61, 62.5 nM, A-431 cells 10,000 cells per well, 48 hours",12 % UTC
same,"Yap1 mRNA, % UTC","[1]; Table 61, 4000.00 nM, A-431 cells 10,000 cells per well, 48 hours",1 % UTC
same,IC50,"[1]; Table 61, A-431 cells 10,000 cells per well",< 10 nM
same,% UTC (Yap1 mRNA),[3]; 31.3 nM,36 % UTC and 37 % UTC
same,% UTC (Yap1 mRNA),[3]; 125.0 nM,5 % UTC and 4 % UTC
same,% UTC (Yap1 mRNA),[3]; 500.0 nM,2 % UTC
same,% UTC (Yap1 mRNA),[3]; 2000.00 nM,2 % UTC
same,IC50,[3]; Yap1 mRNA,< 20 nM
same,Kidney weight,[4],3.1 g
same,Liver weight,[4],14 g
same,Spleen weight,[4],2.8 g
same,body weight,[4],333 g
"1198439 (AGTGTATGTCAGAAGA; sugar, 5-methylcytosine, phosphorothioate modifications, further chemistry not given here) [compound 1198439]",Kidney weight,[5],3.68* g
same,Liver weight,[5],17* g
same,Spleen weight,[5],2.28* g
same,body weight,[5],319* g
same,ALT,[6],54* U/L
same,AST,[6],94* U/L
same,BUN,[6],22* mg/dL
same,TBIL,[6],0.15* mg/dL
"1198440 (AAGTGTATGTCAGAAG; cEt, 2'-MOE, 5-methylcytosine, phosphorothioate modifications, further chemistry not given here) [compound 1198440]",Average Tumor Volume,[7]; day 43 post tumor implantation,111 mm^3
same,Average Tumor Volume,[7]; day 46 post tumor implantation,152 mm^3
same,Average Tumor Volume,[7]; day 50 post tumor implantation,168 mm^3
same,Average Tumor Volume,[7]; day 53 post tumor implantation,201 mm^3
same,Average Tumor Volume,[7]; day 57 post tumor implantation,242 mm^3
same,Average Tumor Volume,[7]; day 60 post tumor implantation,263 mm^3
same,Average Tumor Volume,[7]; day 64 post tumor implantation,338 mm^3
same,Average Tumor Volume,[7]; day 67 post tumor implantation,376 mm^3
same,Average Tumor Volume,[7]; day 71 post tumor implantation,373 mm^3
same,Average Tumor Volume,[7]; day 75 post tumor implantation,401 mm^3
same,Average Tumor Volume,[7]; day 78 post tumor implantation,429 mm^3
same,Average Tumor Volume,[7]; day 81 post tumor implantation,514 mm^3
same,Average Tumor Volume,[7]; day 85 post tumor implantation,606 mm^3
same,Average Tumor Volume,[7]; day 88 post tumor implantation,613 mm^3
same,Average Tumor Volume,[7]; day 92 post tumor implantation,690 mm^3
same,Average Tumor Volume,[7]; day 94 post tumor implantation,773 mm^3
same,Average Tumor Volume,[7]; day 98 post tumor implantation,804 mm^3
same,Average Tumor Volume,[7]; [9],818 mm^3
same,Average Tumor Volume,[7]; [10],894 mm^3
same,Average Tumor Volume,[7]; [11],921 mm^3
same,Average Tumor Volume,[7]; [12],978 mm^3
same,Kidney weight,[5],3.29 g
same,Liver weight,[5],18 g
same,Spleen weight,[5],2.78 g
same,body weight,[5],373 g
same,% activation of ERK1/2,[8],88%
same,ALT,[6],58** U/L
same,AST,[6],108** U/L
same,BUN,[6],20** mg/dL
same,TBIL,[6],0.17** mg/dL
"CGCCGATAAGGTACAC (cEt gapmer, phosphorothioate backbone, further chemistry not given here) [ION 792169, reference compound]",Average Tumor Volume,[7]; day 43 post tumor implantation,111 mm^3
same,Average Tumor Volume,[7]; day 46 post tumor implantation,162 mm^3
same,Average Tumor Volume,[7]; day 50 post tumor implantation,180 mm^3
same,Average Tumor Volume,[7]; day 53 post tumor implantation,247 mm^3
same,Average Tumor Volume,[7]; day 57 post tumor implantation,280 mm^3
same,Average Tumor Volume,[7]; day 60 post tumor implantation,317 mm^3
same,Average Tumor Volume,[7]; day 64 post tumor implantation,397 mm^3
same,Average Tumor Volume,[7]; day 67 post tumor implantation,466 mm^3
same,Average Tumor Volume,[7]; day 71 post tumor implantation,519 mm^3
same,Average Tumor Volume,[7]; day 75 post tumor implantation,559 mm^3
same,Average Tumor Volume,[7]; day 78 post tumor implantation,634 mm^3
same,Average Tumor Volume,[7]; day 81 post tumor implantation,681 mm^3
same,Average Tumor Volume,[7]; day 85 post tumor implantation,785 mm^3
same,Average Tumor Volume,[7]; day 88 post tumor implantation,889 mm^3
same,Average Tumor Volume,[7]; day 92 post tumor implantation,1170 mm^3
same,Average Tumor Volume,[7]; day 94 post tumor implantation,1215 mm^3
same,Average Tumor Volume,[7]; day 98 post tumor implantation,1355 mm^3
same,Average Tumor Volume,[7]; [9],1417 mm^3
same,Average Tumor Volume,[7]; [10],1509 mm^3
same,Average Tumor Volume,[7]; [11],1571 mm^3
same,Average Tumor Volume,[7]; [12],1697* mm^3
same,% activation of ERK1/2,[8],100%
